Measurements published in US20040072146A1, “Mechanism of mitochondrial membrane permeabilization by HIV-1 Vpr, mimetics of Vpr and methods of screening active molecules having the ability to alter and/or prevent and/or mimic the interaction of Vpr with ANT” (priority 2000, published 2004).
“Also recorded” adds a separate entry of the source. Where a SMILES comes first, the peptide text is derived from it.

Assays:
biotinylated Vpr52-96 = biotinylated Vpr52-96 (Human immunodeficiency virus type 1 group M subtype B, UniProt P69726); assay type: binding, HIV-1
purified mitochondria [1] = assay: Inner versus outer mitochondrial membrane permeabilization (NADH oxidation, cytochrome c oxidation); assay type: biochemical; settings: for prevention of Vpr-mediated inner MMP to NADH: preincubation 10 min, Bcl-2 0.8 μM, BA 10 μM
Method: A. Respirometry performed after addition of NADH and Vpr52-96 (1 μM). Numbers along the traces are nmol of O2 consumed min^−1 mg^−1 protein.
B. Kinetics of Vpr52-96 induced inner membrane permeabilization to NADH and outer membrane permeabilization to reduced cytochrome c. Oxygen consumption was determined in the presence of 2 mM NADH (full squares) as in A (traces C-D) and cytochrome c (15 μM) oxidation (open circles) was spectrofluorometrically measured, as described Rustin et al., 1994). The 100% value of cytochrome c oxidation was determined by addition of 2.5 mM laurylmaltoside.
Oxygen consumption of purified mitochondria was measured as in FIG. 5 after addition of succinate+CCCP or NADH, as indicated.

biotin-Vpr52-96 (HIV-1) = biotin-Vpr52-96 (HIV-1) (UniProt P12520); assay: SPR, Langmuir isotherm, peptide on biotinylated Vpr52-96
isolated mitochondria = assay: Electron microscopy of isolated mitochondria (matrix swelling); assay type: biochemical; settings: pre-incubation of mitochondria
Description: C. Ultrastructural effects of Vpr on isolated mitochondria.

ANT-proteoliposomes = molecular target: T1, ANT-proteoliposomes (Rattus norvegicus, UniProt Q05962); assay: FITC-labeled Vpr52-96 binding onto ANT-liposomes and plain liposomes; settings: BA 50 μM; Bcl-2 800 nM
T1 construct: ANT is purified from rat heart and reconstituted in liposomes; from tissue; host or cells: rat heart (ANT)
T1 sequence (Q05962 1-298): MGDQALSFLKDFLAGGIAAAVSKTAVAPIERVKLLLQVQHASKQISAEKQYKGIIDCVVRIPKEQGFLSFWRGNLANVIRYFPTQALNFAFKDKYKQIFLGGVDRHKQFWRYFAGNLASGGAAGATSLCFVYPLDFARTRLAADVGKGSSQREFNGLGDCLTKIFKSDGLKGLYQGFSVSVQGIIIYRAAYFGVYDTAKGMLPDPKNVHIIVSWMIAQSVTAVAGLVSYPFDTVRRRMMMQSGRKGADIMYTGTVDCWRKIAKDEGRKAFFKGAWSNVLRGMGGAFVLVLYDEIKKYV
Method: A. Dose-response curve of FITC-labeled Vpr52-96 binding onto ANT-liposomes and plain liposomes.
B. Binding of FITC-Vpr52-96 (2 μM) to plain liposomes, ANT-proteoliposomes, in the presence or absence of BA (50 μM).

purified mitochondria [2] = assay: FITC-Vpr52-96 binding to purified mitochondria; settings: pre-incubation of the organelles
Method: Mitochondria were left unstained (insert in Co.) or exposed to the ΔΨm-insensitive mitochondrial dye MitoTracker® Green (75 nM), alone (MTG) or with 0.5 μM of FITC-Vpr52-96; green fluorescence), in combination with the ΔΨm-sensitive mitochondrial dye MitoTracker® Red (CMXRos; red Fluorescence) followed by cytofluorometric two-color analysis. Numbers indicate the percentage of mitochondria in each quadrant.
Mitochondria were incubated with the indicated inhibitors, and then exposed for 30 min at RT with 5 μM biotinylated Vpr52-96. Mitochondria were lysed either after incubation with biotinylated Vpr52-96 (upper panel) or lysed before (lower panel) with Tris/HCl as described in materials and methods. Biotinylated Vpr52-96 complexed with its mitochondrial ligands was retained on avidin-agarose and subjected to immunoblot detection of ANT.

purified mitochondria [3] = assay: ΔΨm dissipation in purified mitochondria (JC-1 flow cytometry); assay type: biochemical; settings: 5 μM CsA, 50 μM BA, 0.8 μM Bcl-2, 2 μM PA10
Method: Numbers indicate the percentage of JC-1^high and JC-1^low mitochondria among ˜10^4 events.
E. Quantitation of the frequency of JC-1^low mitochondria (X±SD, n=5) after incubation with different Vpr-derived peptides.

purified mitochondria [4] = assay: Respirometry of purified mitochondria, respiratory control; assay type: biochemical; settings: for effect on respiratory control (RC): 1 μM peptide, 10 min
Method: A. Oxygen consumption curves after addition of the indicated agents. Trace a: control mitochondria (no pretreatment). Trace b: mitochondria pretreated for 10 min with 1 μM Vpr52-96. Numbers along the traces are nmol of O2 consumed min^−1 mg^31 1 protein.
B. Respiratory control (RC) values calculated by dividing oxygen consumption in the presence of CCCP by that measured with oligomycin (determined as in A), 10 min after addition of 1 μM of Vpr-derived peptides (mean values of 3 determinations).

COS cells = assay: ΔΨm dissipation in intact microinjected cells (JC-1); assay type: cell-based
Description: A. Vpr52-96-induced ΔΨm dissipation induced in intact cells.

ANT = molecular target: T2, ANT (Rattus norvegicus, UniProt Q05962); assay: Single channel recordings in planar lipid bilayers; assay type: biochemical
T2 construct: from tissue
T2 sequence (Q05962 whole entry, looked up): T1 sequence (Q05962 1-298)
Method: FIG. 3 presents electrophysiological properties of Vpr52-96 and ANT in planar lipid bilayers. Current fluctuations of Vpr52-96 (80 nM, +150 mV), Vpr52-96(0.4 nM, +100 mV), ANT (1 nM, +110 mV) and Vpr52-96+ANT (0.4:1 nM, +115 mV) and associated histograms (right) of conductance levels are shown.
Current fluctuations of Vpr52-96 (80 nM, +150 mV), Vpr52-96 (0.4 nM, +100 mV), ANT (1 nM, +110 mV) and Vpr52-96+ANT (0.4:1 nM, 115 mV) after incorporation into synthetic membranes. Single channel recordings were performed using the “Tip-Dip” technique. The recordings shown are representative for at least three independent determinations.
B. Statistical analysis of conductances obtained in A. Results were expressed as current distributions at different voltages. Conductances (γ; in picosiemens, pS) are calculated by division of current by voltage.

[5] = molecular target: T3, adenine nucleotide translocator (ANT), native purified protein (rat), Q05962; assay: cell-based or functional assay
T3 chain: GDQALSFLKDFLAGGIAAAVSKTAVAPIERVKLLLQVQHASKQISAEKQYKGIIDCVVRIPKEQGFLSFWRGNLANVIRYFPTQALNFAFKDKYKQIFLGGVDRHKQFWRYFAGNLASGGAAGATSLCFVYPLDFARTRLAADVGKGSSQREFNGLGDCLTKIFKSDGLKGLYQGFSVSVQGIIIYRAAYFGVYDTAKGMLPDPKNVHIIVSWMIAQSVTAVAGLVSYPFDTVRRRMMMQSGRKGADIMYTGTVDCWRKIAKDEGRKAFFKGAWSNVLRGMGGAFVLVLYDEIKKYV

[6] = molecular target: T4, adenine nucleotide translocator (ANT), native purified protein (rat, UniProt Q05962 2-298); assay: not stated (summary paragraph)
T4 construct: mature; also called adenine nucleotide translocase; ADP/ATP carrier
T4 sequence: T3 chain

[7] = molecular target: biotin-Vpr52-96 (HIV-1), P12520; assay: SPR, immobilised biotin-Vpr52-96, detergent-solubilized ANT as analyte

Q: For `C[C@H](NC(=O)[C@H](Cc1ccccc1)NC(=O)[C@H](Cc1ccc(O)cc1)NC(=O)[C@H](CCCNC(=N)N)NC(=O)[C@H](Cc1c[nH]c2ccccc12)NC(=O)[C@H](Cc1ccccc1)NC(=O)[C@H](CCC(N)=O)NC(=O)[C@@H](NC(=O)[C@H](CCCNC(=N)N)NC(=O)[C@H](CCCCN)NC(=O)[C@@H](N)CC(=O)O)[C@@H](C)O)C(=O)NCC(=O)N[C@@H](CC(N)=O)C(=O)O` [ANT104-116] (H-DKRTQFWRYFAGN-OH; N-terminus and C-terminus assumed), which Kd (biotinylated Vpr52-96; read-out: calculated KD of binding of ANT104-116 to biotinylated Vpr52-96, Langmuir isotherm) is on record?
A: 35 µM

Q: With `C=C(C)[C@H]1Cc2c(ccc3c2O[C@@H]2COc4cc(OC)c(OC)cc4[C@@H]2C3=O)O1` [rotenone, reference compound] as the molecule, how does the “sensitivity of Vpr-stimulated, NADH-dependent O2 consumption” value (purified mitochondria [1]) read?
A: fully sensitive to rotenone

Q: How did the Kd (biotin-Vpr52-96 (HIV-1)) turn out when ANT-2-derived peptide ANT104-116 was run?
A: 35 µM

Q: For `CO[C@H](C/C=C\C=C\CC/C=C/C[C@H](C)/C=C/C(=C\C(=O)O)CC(=O)O)/C(C)=C\C=C(/C)C(=O)O` [bongkrekic acid, reference compound], which “inhibition of Vpr-induced matrix swelling” value (isolated mitochondria) is on record?
A: inhibited

Q: What about the “prevention of Vpr-mediated inner MMP to NADH” value (purified mitochondria [1]) of the same molecule?
A: prevented the Vpr-mediated inner MMP to NADH

Q: What about the “effect on Vpr52-96 binding to ANT liposomes (membrane-associated ANT)” value (ANT-proteoliposomes) of the same molecule?
A: inhibited

Q: What about the “effect on binding of Vpr52-96 to purified mitochondria” value (purified mitochondria [2]) of the same molecule?
A: partially reduced

Q: And the “inhibition of Vpr-induced ΔΨm loss in purified mitochondria” value (purified mitochondria [3])?
A: inhibited

Q: With “Vpr: proapoptotic 96 amino acid HIV-1 regulatory protein, full length Vpr1-96 (DTWAGVEAIIRILQQLLFIHFRIGCRHSRIGVTRQRRARNGASRS)” as the molecule, how does the “effect on respiratory control (RC)” value (purified mitochondria [4]) read?
A: also reduced the RC values

Q: And the “oxidation rate accompanying loss of RC” value (purified mitochondria [4]; short-term incubation)?
A: not associated with a significant decrease of the oxidation rate

Q: What about the “ΔΨm loss in intact cells” value (COS cells; extracellular addition) of the same molecule?
A: induced a rapid ΔΨm loss, before nuclear condensation occurred

Q: With “Bax: pro-apoptotic Bcl-2 family protein added to Vpr52-96-ANT channels” as the molecule, how does the “mean conductance of Vpr52-96-ANT channels with Bax” value (ANT; Vpr52-96+ANT+Bax 0.4:1:0.3 nM, +75 mV) read?
A: 245±2 S

Q: Which results are given for Bcl-2: recombinant human Bcl-2 protein?
A: inhibition of Vpr-induced matrix swelling (isolated mitochondria): inhibited; also recorded: strongly reduced; prevention of Vpr-mediated inner MMP to NADH (purified mitochondria [1]): prevented the Vpr-mediated inner MMP to NADH; effect on formation of Vpr52-96 induced channels in ANT-containing lipid bilayers (ANT; Vpr52-96+ANT+Bcl-2 0.4:1:1 nM): abolished the formation of Vpr52-96 induced channels in ANT-containing lipid bilayers; binding to Vpr52-96 (biotinylated Vpr52-96): did not bind Vpr52-96; prevention of Vpr effects on intact cells (COS cells; microinjected, Bcl-2 10 μM, PA10 2 μM): prevented; effect on Vpr52-96 binding to ANT liposomes (membrane-associated ANT) (ANT-proteoliposomes): reduced Vpr52-96 binding; effect on binding of Vpr52-96 to purified mitochondria (purified mitochondria [2]): failed to impair the binding of Vpr52-96 to purified mitochondria; inhibition of Vpr-induced ΔΨm loss in purified mitochondria (purified mitochondria [3]): inhibited; also recorded: strongly reduced

Q: For HFRIGCRHSRIG [Vpr71-82], which “effect on respiratory control (RC)” value (purified mitochondria [4]) is on record?
A: also reduced the RC values

Q: With DTWAGVEAIIRILQQLLFIHFRIGCRHSRIGVTRQRRARNGASRS (modifications not checked) [Vpr52-96, P12520 52-96] as the molecule, how does the conductance of Vpr52-96-ANT channels in the presence of Bax [5] read?
A: 245 pS

Q: And the conductance of channels formed by ANT and Vpr52-96 in planar lipid bilayers [5]?
A: 190 pS

Q: How did the Kd [6] turn out when DTWAGVEAIIRILQQLLFIHFRIGCRHSRIGVTRQRRARNGASRS (other, also called viral protein R) [HIV-1 Vpr] was run?
A: 0.001 µM

B1: adenine nucleotide translocator (ANT), native purified protein, Q05962 2-298 (protein)
chain: T3 chain
Q: Which Kd [7] does the source give for B1 here?
A: 0.0097 µM
